# “Also recorded” adds a separate entry of the source.
# Tested on: cell suspensions of A. woodii
# Test: Formate production by whole cell catalysis, cell suspensions of A. woodii converting H2 and CO2
# Type: cell-based, Acetobacterium woodii
# Conditions: ETH2120 30 μM
# Protocol: Cell suspensions of A. woodii (1 mg/ml) were incubated using a gas phase of 0.8×10^5 Pa H2 and 0.2×10^5 Pa CO2 (1A). Adding the Na^+ ionophore ETH2120 (30 μM) gives rise to the production of up to 8 mM formate and the production of acetate stopped (1B). For experiments with whole cells, the inventors used cell suspensions of A. woodii for the conversion of H2 and CO2 to formate. The energy metabolism of A. woodii is strictly sodium ion dependent, and the ATP synthase uses Na^+ as the coupling ion. Thus, by omitting sodium ions in the buffer or by adding sodium ionophores (the inventors used the ionophore ETH2120 in this study), it is possible to switch off the energy metabolism specifically. Cells suspended in imidazole buffer (50 mM imidazole, 20 mM MgSO4, 20 mM KCl, 4 mM DTE, pH 7.0) containing 20 mM NaCl converted H2+CO2 to acetate, and only small amounts of formate were produced from a gas phase of 0.8×10^5 Pa II2 and 0.2×10^5 CO2. […] In agreement with the results obtained from the purified enzyme, foimate production was also observed when hydrogen was absent and the electron donor was CO but with lower rates compared to hydrogen as electron donor.
structure (smiles),measurement,setting,value
"O=C(COc1ccccc1OCC(=O)N(C1CCCCC1)C1CCCCC1)N(C1CCCCC1)C1CCCCC1 [ETH2120, N,N,N′,N′-Tetracyclohexyl-1,2-phenylenedioxydiacetamide]",production of formate (concentration reached),"A. woodii cell suspension (1 mg/ml), gas phase 0.8×10^5 Pa H2 and 0.2×10^5 Pa CO2",up to 8 mM
same,acetate production,"A. woodii cell suspension (1 mg/ml), gas phase 0.8×10^5 Pa H2 and 0.2×10^5 Pa CO2, imidazole buffer with 20 mM NaCl",stopped; also recorded: ceased almost completely
same,initial rate of formate production,"A. woodii cells in imidazole buffer with 20 mM NaCl, gas phase 0.8×10^5 Pa H2 and 0.2×10^5 CO2",2 μmol/min×mg cell protein

# — patent publication US10717997B2, “Method for storing gaseous hydrogen through producing methanoate (formate)” (Johann Wolfgang Goethe-Universität, priority 2013, dated 2020)
